The nature of this series: Singlet oxygen quantum yield and lifetime (1270 nm phosphorescence in D2O) under magnetic field. The series is classed as physicochemical. As to conditions: for τΔ (lifetime of singlet oxygen): RB 10 μmol/L in D2O. As for the experimental part: (4) Singlet oxygen (^1O2), quantum yield (ΦΔ) and lifetime (τΔ) are measured by the following experiment. The phosphorescence of singlet oxygen (^1O2) generated at 1270 nm is determined in air saturated D2O solution of RB (10 μmol/L). The solution is excited at 561 nm.
The magnetic field effect MFs (ΦΔ,B) is calculated by the following formula: ΦΔ,B=ΦΔ,0×(IB/I0), where IB and I0 are peak areas of emission peaks at a magnetic field strength of B and without magnetic field strength, respectively.
The change rate of the magnetic field effect is:
The lifetime (τΔ) of singlet oxygen (^1O2) is affected by the magnetic field effect is as follows: […]

The results in this text go back to patent US20250041624A1, “METHOD FOR ENHANCING ACTIVITY OF PHOTOSENSITIZER BY MAGNETIC FIELD” (PEKING UNIVERSITY, priority 2021, published 2025).

Consider `O=C1OC2(c3cc(I)c(O)c(I)c3Oc3c2cc(I)c(O)c3I)c2c(Cl)c(Cl)c(Cl)c(Cl)c21` [RB, Rose Bengal], for which the “τΔ (lifetime of singlet oxygen)” value is, setting by setting: (MF 0 mT) 66.7 ± 2.8 μs; (MF 30 mT) 65.8 ± 7.1 μs; (MF 50 mT) 60.7 ± 2.0 μs; (MF 90 mT) 62.6 ± 3.2 μs; (MF 120 mT) 69.5 ± 4.7 μs; (MF 150 mT) 62.8 ± 0.8 μs. Also, for the setting “MF 200 mT”, the “τΔ (lifetime of singlet oxygen)” value is reported as 65.4 ± 4.5 μs. In addition, where the note is “RB 10 μmol/L in air saturated D2O, excited at 561 nm, with increasing magnetic field, FIG. 21”, the “rate of change of luminescence quantum yield of 1O2” value is on record as −5% to +10%.
